From PubChem BioAssay (NCI)
Several values for one entry are separate records, joined by “and”; a condition that tells them apart may be missing. Identical values can stand only once.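 Protocol summary: plate cells (96-well), add compound at 5 concentrations, incubate 48 h, interpolate endpoints linearly. TGI denotes the concentration required for complete inhibition of growth.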

Assays:
Test in all cases: growth of human tumour cells (NCI), 48 h
ACHN renal = test system: ACHN renal
CAKI-1 renal = test system: CAKI-1 renal
COLO 205 colon = test system: COLO 205 colon
DMS 273 small cell lung = test system: DMS 273 small cell lung
HCC-2998 colon = test system: HCC-2998 colon
HCT-116 colon = test system: HCT-116 colon
HL-60(TB) leukemia = test system: HL-60(TB) leukemia
HOP-18 NSCLC = test system: HOP-18 NSCLC
HOP-92 NSCLC = test system: HOP-92 NSCLC
M14 melanoma = test system: M14 melanoma
M19-MEL melanoma = test system: M19-MEL melanoma
MALME-3M melanoma = test system: MALME-3M melanoma
NCI-H226 lung = test system: NCI-H226 lung
NCI-H23 lung = test system: NCI-H23 lung
NCI-H522 lung = test system: NCI-H522 lung
OVCAR-4 ovarian = test system: OVCAR-4 ovarian
RPMI-8226 leukemia = test system: RPMI-8226 leukemia
RXF 393 renal = test system: RXF 393 renal
SK-MEL-2 melanoma = test system: SK-MEL-2 melanoma
SK-MEL-28 melanoma = test system: SK-MEL-28 melanoma
SK-MEL-5 melanoma = test system: SK-MEL-5 melanoma
SN12C renal = test system: SN12C renal
SNB-78 CNS = test system: SNB-78 CNS
SR leukemia = test system: SR leukemia
SW-620 colon = test system: SW-620 colon
TK-10 renal = test system: TK-10 renal
XF 498 CNS = test system: XF 498 CNS
786-0 renal = test system: 786-0 renal
A498 renal = test system: A498 renal
A549 NSCLC = test system: A549 NSCLC
CCRF-CEM leukemia = test system: CCRF-CEM leukemia
DLD-1 colon = test system: DLD-1 colon
DMS 114 small cell lung = test system: DMS 114 small cell lung
EKVX NSCLC = test system: EKVX NSCLC
HCT-15 colon = test system: HCT-15 colon
HOP-62 NSCLC = test system: HOP-62 NSCLC
HT29 colon = test system: HT29 colon
IGROV1 ovarian = test system: IGROV1 ovarian
K-562 leukemia = test system: K-562 leukemia
KM12 colon = test system: KM12 colon
KM20L2 colon = test system: KM20L2 colon
LOX IMVI melanoma = test system: LOX IMVI melanoma
LXFL 529 NSCLC = test system: LXFL 529 NSCLC
MOLT-4 leukemia = test system: MOLT-4 leukemia
NCI-H460 lung = test system: NCI-H460 lung
OVCAR-3 ovarian = test system: OVCAR-3 ovarian
OVCAR-5 ovarian = test system: OVCAR-5 ovarian
OVCAR-8 ovarian = test system: OVCAR-8 ovarian
SF-268 CNS = test system: SF-268 CNS
SF-295 CNS = test system: SF-295 CNS
SF-539 CNS = test system: SF-539 CNS
SK-OV-3 ovarian = test system: SK-OV-3 ovarian
SNB-19 CNS = test system: SNB-19 CNS
SNB-75 CNS = test system: SNB-75 CNS
U251 CNS = test system: U251 CNS
UACC-257 melanoma = test system: UACC-257 melanoma
UACC-62 melanoma = test system: UACC-62 melanoma
UO-31 renal = test system: UO-31 renal

COc1ccc(C2=C[C@]3(O)CCCN3C[C@@H]2c2ccc(OC)c(OC)c2)cc1
TGI (ACHN renal): 0.00185 µM | TGI (CAKI-1 renal): 0.00162 µM | TGI (COLO 205 colon): < 0.0001 µM | TGI (DMS 273 small cell lung): 0.000172 µM | TGI (HCC-2998 colon): 0.101 µM | TGI (HCT-116 colon): 0.00112 µM | TGI (HL-60(TB) leukemia): < 0.0001 µM | TGI (HOP-18 NSCLC): 0.000214 µM | TGI (HOP-92 NSCLC): 0.000527 µM | TGI (M14 melanoma): < 0.0001 µM | TGI (M19-MEL melanoma): 0.000396 µM | TGI (MALME-3M melanoma): < 0.0001 µM | TGI (NCI-H226 lung): < 0.0001 µM | TGI (NCI-H23 lung): 0.000105 µM | TGI (NCI-H522 lung): < 0.0001 µM | TGI (OVCAR-4 ovarian): 0.0384 µM | TGI (RPMI-8226 leukemia): 13.9 µM | TGI (RXF 393 renal): 0.0223 µM | TGI (SK-MEL-2 melanoma): 0.000164 µM | TGI (SK-MEL-28 melanoma): 0.00216 µM and 0.0197 µM | TGI (SK-MEL-5 melanoma): < 0.0001 µM | TGI (SN12C renal): > 100 µM | TGI (SNB-78 CNS): 0.0338 µM | TGI (SR leukemia): < 0.0001 µM | TGI (SW-620 colon): 0.00183 µM | TGI (TK-10 renal): 0.611 µM | TGI (XF 498 CNS): 0.449 µM

COc1cc(NS(=O)(=O)c2ccc(C)cc2)c2nccnc2c1
TGI (786-0 renal): > 100 µM | TGI (A498 renal): > 100 µM | TGI (A549 NSCLC): > 100 µM | TGI (ACHN renal): 80.8 µM | TGI (CAKI-1 renal): > 100 µM | TGI (CCRF-CEM leukemia): 81.2 µM | TGI (COLO 205 colon): 90.1 µM | TGI (DLD-1 colon): > 100 µM | TGI (DMS 114 small cell lung): 40.8 µM | TGI (DMS 273 small cell lung): > 100 µM | TGI (EKVX NSCLC): > 100 µM | TGI (HCC-2998 colon): > 100 µM | TGI (HCT-15 colon): > 100 µM | TGI (HL-60(TB) leukemia): 51.7 µM | TGI (HOP-18 NSCLC): > 100 µM | TGI (HOP-62 NSCLC): > 100 µM | TGI (HOP-92 NSCLC): > 100 µM | TGI (HT29 colon): > 100 µM | TGI (IGROV1 ovarian): > 100 µM | TGI (K-562 leukemia): > 100 µM | TGI (KM12 colon): > 100 µM | TGI (KM20L2 colon): > 100 µM | TGI (LOX IMVI melanoma): > 100 µM | TGI (LXFL 529 NSCLC): > 100 µM | TGI (M14 melanoma): 35.1 µM | TGI (M19-MEL melanoma): 55 µM | TGI (MALME-3M melanoma): > 100 µM | TGI (MOLT-4 leukemia): 52.3 µM | TGI (NCI-H226 lung): > 100 µM | TGI (NCI-H23 lung): > 100 µM | TGI (NCI-H460 lung): > 100 µM | TGI (NCI-H522 lung): 70.2 µM | TGI (OVCAR-3 ovarian): > 100 µM | TGI (OVCAR-4 ovarian): > 100 µM | TGI (OVCAR-5 ovarian): > 100 µM | TGI (OVCAR-8 ovarian): > 100 µM | TGI (RPMI-8226 leukemia): > 100 µM | TGI (RXF 393 renal): 64.7 µM | TGI (SF-268 CNS): 93.7 µM | TGI (SF-295 CNS): > 100 µM | TGI (SF-539 CNS): 83.8 µM | TGI (SK-MEL-2 melanoma): 54.5 µM | TGI (SK-MEL-28 melanoma): > 100 µM | TGI (SK-MEL-5 melanoma): 63.7 µM | TGI (SK-OV-3 ovarian): > 100 µM | TGI (SN12C renal): > 100 µM | TGI (SNB-19 CNS): > 100 µM | TGI (SNB-75 CNS): 78.1 µM | TGI (SR leukemia): > 100 µM | TGI (SW-620 colon): > 100 µM | TGI (TK-10 renal): > 100 µM | TGI (U251 CNS): 89.3 µM | TGI (UACC-257 melanoma): > 100 µM | TGI (UACC-62 melanoma): 34.6 µM | TGI (UO-31 renal): > 100 µM | TGI (XF 498 CNS): > 100 µM
